In publication PMC9127186, “Molecular Basis Underlying Hepatobiliary and Renal Excretion of Phenolic Acids of Salvia miltiorrhiza Roots (Danshen)” (Frontiers in Pharmacology, 2022):

How the values were obtained:
human BSEP = human BSEP (Homo sapiens, UniProt O95342); experiment: Vesicular transport assay, inside-out membrane vesicles expressing human BSEP; settings: 10 min
Method: (§1) Inside-out membrane vesicles (5 mg protein/mL), prepared from insect cells expressing human multidrug resistance-associated protein (MRP) 2, MRP3, MRP4, breast cancer resistance protein (BCRP), bile salt export pump (BSEP), and multidrug resistance protein (MDR) one and rat Mrp2, Mrp4, Bcrp, and Bsep, and vesicles (5 mg protein/mL; prepared from the insect cells expressing no ABC transporter; serving as negative control) were obtained from Genomembrane (Kanazawa, Japan).
(§2) The test Danshen compounds at 100 µM final concentration were separately incubated with the membrane vesicles for 10 min. Buffer C (50 mM MOPS-tris, 70 mM KCl, 7.5 mM MgCl2, pH 7.0) was used for preincubation and incubation, while buffer D (40 mM MOPS-tris, 70 mM KCl, pH 7.0) was used for vesicle washing. The transport rate (pmol/mg protein/min) of the test Danshen compound was calculated using Equation (2): Transport=(CV×VV)/T/WV (2) where C V, V V, T, and W V represent concentration of the compound in vesicular lysates supernatant (μM), volume of the lysates (μL), incubation time (10 min), and amount of vesicle protein amount per well (0.05 mg), respectively. Differential transport of the test Danshen compound between ATP-containing vesicles and AMP-containing vesicles was defined as net transport ratio (TransportATP/TransportAMP ratio). […] All the incubation samples were analyzed by liquid chromatography/mass spectrometry.

rat Bsep = target: T1, rat Bsep (Rattus norvegicus, UniProt O70127); experiment: Vesicular transport assay, inside-out membrane vesicles expressing rat Bsep; settings: 10 min
T1 sequence (O70127 1-1321): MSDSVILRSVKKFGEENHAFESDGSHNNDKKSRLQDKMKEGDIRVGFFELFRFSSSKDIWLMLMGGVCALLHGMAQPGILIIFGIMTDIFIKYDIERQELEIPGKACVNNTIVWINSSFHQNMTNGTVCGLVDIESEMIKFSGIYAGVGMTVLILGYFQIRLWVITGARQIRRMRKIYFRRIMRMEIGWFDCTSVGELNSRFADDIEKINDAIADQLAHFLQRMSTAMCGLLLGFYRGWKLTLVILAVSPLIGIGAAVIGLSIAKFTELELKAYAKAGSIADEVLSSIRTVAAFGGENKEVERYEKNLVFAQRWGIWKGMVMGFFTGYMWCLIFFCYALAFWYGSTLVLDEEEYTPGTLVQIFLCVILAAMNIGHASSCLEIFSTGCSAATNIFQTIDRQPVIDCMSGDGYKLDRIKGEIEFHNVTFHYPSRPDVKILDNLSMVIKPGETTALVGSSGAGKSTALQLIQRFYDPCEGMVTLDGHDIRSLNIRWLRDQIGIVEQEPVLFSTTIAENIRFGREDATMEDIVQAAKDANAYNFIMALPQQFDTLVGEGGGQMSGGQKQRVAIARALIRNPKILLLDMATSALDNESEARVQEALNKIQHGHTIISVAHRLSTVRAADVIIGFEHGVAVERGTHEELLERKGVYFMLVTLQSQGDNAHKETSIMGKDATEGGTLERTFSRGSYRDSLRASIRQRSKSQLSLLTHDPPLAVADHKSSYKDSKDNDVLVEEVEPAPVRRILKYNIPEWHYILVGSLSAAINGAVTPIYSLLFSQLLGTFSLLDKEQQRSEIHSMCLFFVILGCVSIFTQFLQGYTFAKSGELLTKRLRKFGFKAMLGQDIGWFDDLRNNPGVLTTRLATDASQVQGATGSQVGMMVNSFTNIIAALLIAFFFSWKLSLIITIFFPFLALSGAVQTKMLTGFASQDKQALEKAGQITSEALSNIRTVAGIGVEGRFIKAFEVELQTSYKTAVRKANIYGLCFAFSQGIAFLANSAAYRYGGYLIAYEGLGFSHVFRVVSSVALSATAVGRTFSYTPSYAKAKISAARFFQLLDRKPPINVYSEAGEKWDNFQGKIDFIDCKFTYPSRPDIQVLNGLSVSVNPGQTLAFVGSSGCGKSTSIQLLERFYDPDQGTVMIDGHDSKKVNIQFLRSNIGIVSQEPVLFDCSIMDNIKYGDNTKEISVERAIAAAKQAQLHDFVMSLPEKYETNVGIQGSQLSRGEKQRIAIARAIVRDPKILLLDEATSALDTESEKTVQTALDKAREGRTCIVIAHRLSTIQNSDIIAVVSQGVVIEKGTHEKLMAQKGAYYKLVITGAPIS
Method: as §1, §2

human OAT1 = target: T2, human OAT1 (Homo sapiens, UniProt Q4U2R8); experiment: Cellular transport assay, HEK-293 cells expressing human OAT1; settings: for TransportTC/TransportMC ratio (net transport ratio): 10 min; for K m: human renal basolateral uptake OAT1, 5 min incubation, concentrations in Table 1
T2 sequence (Q4U2R8 1-563): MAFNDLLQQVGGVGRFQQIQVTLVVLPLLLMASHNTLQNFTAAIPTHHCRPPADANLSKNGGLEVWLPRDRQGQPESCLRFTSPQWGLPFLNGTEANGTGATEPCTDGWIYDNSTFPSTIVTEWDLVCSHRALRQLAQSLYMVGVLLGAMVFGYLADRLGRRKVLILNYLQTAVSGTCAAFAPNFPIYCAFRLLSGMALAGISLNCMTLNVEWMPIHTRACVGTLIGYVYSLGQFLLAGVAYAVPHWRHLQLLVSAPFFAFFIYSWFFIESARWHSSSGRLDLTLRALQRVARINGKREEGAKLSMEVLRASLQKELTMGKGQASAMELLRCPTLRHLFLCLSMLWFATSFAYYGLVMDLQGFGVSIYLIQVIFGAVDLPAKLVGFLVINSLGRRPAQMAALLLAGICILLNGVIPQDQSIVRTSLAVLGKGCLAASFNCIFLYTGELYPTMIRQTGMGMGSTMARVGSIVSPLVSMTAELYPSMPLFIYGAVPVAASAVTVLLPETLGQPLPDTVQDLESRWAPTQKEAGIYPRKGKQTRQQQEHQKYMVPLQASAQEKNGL
Method: Briefly, HEK-293 cells were grown, at 37°C and 5% CO2, in Dulbecco’s modified Eagle’s medium, which was fortified with 10% fetal bovine serum, 1% minimal essential medium nonessential amino acids, and 1% antibiotic-antimycotic solution. A day before transfection, cells were seeded onto 24-well poly-D-lysine-coated plates at a density of 2 × 10^5 cells per well. After incubation at 37°C and 5% CO2 for 24 h, the expression plasmid and the empty vector were introduced separately into the HEK293 cells with Lipofectamine 2000 transfection reagent (Invitrogen, Carlsbad, CA, United States), according to the manufacturer’s protocol to yield transporter-expressing cells and mock cells, respectively.
Transport studies were performed 48 h after the transfection. […] Differential uptake between the transfected cells and mock cells was defined as net transport ratio (TransportTC/TransportMC ratio), where TransportTC and TransportMC are the transport rates of a test Danshen compound into transfected and mock cells, respectively. […] The determination was performed under linear uptake conditions by incubation for 5 min. Table 1 summarizes the final concentrations of the test Danshen compounds for different transporters. All the incubation samples were analyzed by liquid chromatography/mass spectrometry.
GraFit software (version 5.0; Erithacus Software Ltd, Surrey, United Kingdom) was used to determine the K m and V max values by nonlinear regression analysis of initial transport rates as a function of substrate concentration.

[1] = Danshen phenolic acid at 100 μM final concentration, human BSEP vesicles
[2] = Danshen phenolic acid at 100 μM final concentration, rat Bsep vesicles
[3] = Danshen phenolic acid at 100 μM final concentration, human OAT1-transfected vs mock cells

Chain of human BSEP (O95342 whole entry): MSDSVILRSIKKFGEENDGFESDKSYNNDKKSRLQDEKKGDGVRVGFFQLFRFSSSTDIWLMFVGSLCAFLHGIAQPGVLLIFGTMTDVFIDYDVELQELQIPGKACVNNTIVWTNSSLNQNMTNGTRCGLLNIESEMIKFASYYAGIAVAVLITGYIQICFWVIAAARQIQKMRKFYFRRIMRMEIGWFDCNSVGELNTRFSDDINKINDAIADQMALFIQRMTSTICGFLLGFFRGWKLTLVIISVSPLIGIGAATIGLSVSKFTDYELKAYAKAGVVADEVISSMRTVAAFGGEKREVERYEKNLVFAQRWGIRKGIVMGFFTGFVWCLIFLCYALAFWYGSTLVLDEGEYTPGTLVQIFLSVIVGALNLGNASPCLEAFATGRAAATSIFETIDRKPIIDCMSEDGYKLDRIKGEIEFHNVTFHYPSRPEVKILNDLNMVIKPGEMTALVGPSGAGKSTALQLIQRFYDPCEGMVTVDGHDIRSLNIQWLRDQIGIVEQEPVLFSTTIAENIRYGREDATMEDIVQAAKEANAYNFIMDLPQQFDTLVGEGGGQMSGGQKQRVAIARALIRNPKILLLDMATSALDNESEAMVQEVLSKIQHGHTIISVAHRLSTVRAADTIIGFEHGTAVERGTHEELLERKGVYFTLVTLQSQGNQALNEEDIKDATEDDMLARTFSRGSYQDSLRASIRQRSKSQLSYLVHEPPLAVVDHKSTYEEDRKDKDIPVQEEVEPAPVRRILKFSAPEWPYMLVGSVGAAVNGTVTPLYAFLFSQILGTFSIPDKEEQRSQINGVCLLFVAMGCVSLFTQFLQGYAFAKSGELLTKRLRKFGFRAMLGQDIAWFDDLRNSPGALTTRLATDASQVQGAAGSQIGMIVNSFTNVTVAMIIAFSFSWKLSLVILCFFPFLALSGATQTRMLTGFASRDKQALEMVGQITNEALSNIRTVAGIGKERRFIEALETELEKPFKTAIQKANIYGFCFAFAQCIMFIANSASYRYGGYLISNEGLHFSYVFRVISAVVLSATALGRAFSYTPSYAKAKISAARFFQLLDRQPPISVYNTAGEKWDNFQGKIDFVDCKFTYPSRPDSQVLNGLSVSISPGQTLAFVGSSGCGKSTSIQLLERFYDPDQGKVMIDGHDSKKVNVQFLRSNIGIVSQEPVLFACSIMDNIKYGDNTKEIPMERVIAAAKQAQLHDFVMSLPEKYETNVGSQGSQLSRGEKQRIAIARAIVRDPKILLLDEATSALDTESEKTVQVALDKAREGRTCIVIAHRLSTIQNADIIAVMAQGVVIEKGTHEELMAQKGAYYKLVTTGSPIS

Row | Compound | TransportATP/TransportAMP ratio (net transport ratio) (human BSEP; [1]) | TransportATP/TransportAMP ratio (net transport ratio) (rat Bsep; [2]) | TransportTC/TransportMC ratio (net transport ratio) (human OAT1; [3]) | substrate of human OAT1 (human OAT1) | microsomal CLint (human OAT1; human) [µL/min/mg] | K m (human OAT1) [µM] | TransportATP/TransportAMP ratio (net transport ratio) (human BSEP; human, 100 μM, pH 7) | TransportATP/TransportAMP ratio (net transport ratio) (rat Bsep; rat, 100 μM, pH 7) | TransportTC/TransportMC ratio (net transport ratio) (human OAT1; human, 100 μM) | microsomal CLint (human OAT1; human, other cell line) [µL/min/mg]
1 | O=C(/C=C/c1ccc(O)c2c1[C@H](C(=O)O)[C@@H](c1ccc(O)c(O)c1)O2)O[C@H](Cc1ccc(O)c(O)c1)C(=O)O [Lithospermic acid, lithospermic acid] | 0.83 ± 0.20 | 1.69 ± 0.37 | 2.09 ± 0.89 | – | – | – | – | – | – | –
2 | O=C(O)c1ccc(O)c(O)c1 [Protocatechuic acid, protocatechuic acid] | 0.99 ± 0.21 | 1.13 ± 0.17 | 53.1 ± 3.9 | substrates | 6.43 | 37.6 ± 2.5 | – | – | – | –
3 | O=C(/C=C/c1ccc(O)c(O)c1)O[C@H](Cc1ccc(O)c(O)c1)C(=O)O [Rosmarinic acid, rosmarinic acid] | – | – | – | substrates | – | 70.8 ± 6.4 | 1.03 ± 0.09 | 1.39 ± 0.36 | 46.8 ± 10.9 | 2.55
4 | O=C(/C=C/c1ccc(O)c(O)c1/C=C/c1ccc(O)c(O)c1)O[C@H](Cc1ccc(O)c(O)c1)C(=O)O [Salvianolic acid A, salvianolic acid A] | – | – | – | – | – | – | 1.32 ± 0.26 | 0.75 ± 0.12 | 1.02 ± 0.14 | –
5 | O=C(O)Cc1c(/C=C/C(=O)O[C@H](Cc2ccc(O)c(O)c2)C(=O)O)ccc(O)c1O [Salvianolic acid D, salvianolic acid D] | 1.19 ± 0.35 | 1.09 ± 0.23 | 11.7 ± 2.4 | substrates | 2.08 | 18.1 ± 2.3 | – | – | – | –
6 | O=C(O)C(O)Cc1ccc(O)c(O)c1 (centres unmarked) [Tanshinol, tanshinol] | – | – | – | – | – | 98.9 ± 7.1 | – | – | – | 10.5
7 | salvianolic acid B | 1.43 ± 0.32 | 1.52 ± 0.67 | 1.21 ± 0.14 | – | – | – | – | – | – | –
